Test systems include NCI-H522 lung; HL-60(TB) leukemia; EKVX NSCLC; K-562 leukemia; MOLT-4 leukemia; SK-MEL-28 melanoma; A498 renal; T-47D breast; SF-268 CNS; OVCAR-4 ovarian.
Holding throughout (experiment): DTP human tumour cell line panel, 48 h

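Dose response: 5 concentrations. Exposure: 48 h. Format: 96-well plates. Endpoint: linear interpolation; highest concentration if not reached. Here, GI50 denotes the concentration required for 50% inhibition of growth. The concentration for full growth arrest is given as TGI.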

For the compound `Oc1ccc(Br)cc1C=Nc1cccc(C(F)(F)F)c1`, the total growth inhibition concentration (TGI) (commonly the concentration giving total growth inhibition) with NCI-H522 lung was over 100 µM; in the assay with HL-60(TB) leukemia, 34.4 µM; in the assay with EKVX NSCLC it was over 100 µM; in the assay on K-562 leukemia it was over 100 µM; in the assay with MOLT-4 leukemia, 83.8 µM; in the assay with SK-MEL-28 melanoma it was over 100 µM. Besides, the TGI in the assay with A498 renal, in the assay with T-47D breast, in the assay with SF-268 CNS and in the assay with OVCAR-4 ovarian was over 100 µM each time.

For the compound `COc1ccc2nc3cc(Cl)ccc3c(NCCCNCCO)c2c1`, the GI50 (usually the concentration giving 50% growth inhibition) in the assay with NCI-H522 lung was 0.379 µM; in the assay on HL-60(TB) leukemia it was 0.613 µM; in the assay with EKVX NSCLC it was 1.17 µM; with K-562 leukemia, 0.383 µM; with MOLT-4 leukemia, 0.413 µM; in the assay with SK-MEL-28 melanoma it was 1.38 µM. For the same compound, the GI50 with A498 renal was 0.197 µM; in the assay with T-47D breast, 0.625 µM; in the assay with SF-268 CNS, 0.577 µM; with OVCAR-4 ovarian, 0.484 µM. Further, the TGI was 1.63 µM in the assay with NCI-H522 lung; 2.64 µM in the assay with HL-60(TB) leukemia; 4.19 µM in the assay with EKVX NSCLC; 2.4 µM with K-562 leukemia; 3.4 µM with MOLT-4 leukemia; 3.06 µM in the assay with SK-MEL-28 melanoma. Besides, the TGI worked out at 1.5 µM in the assay with A498 renal, 3.41 µM with T-47D breast, 2.66 µM in the assay with SF-268 CNS and 2.87 µM in the assay on OVCAR-4 ovarian.

Regarding `COc1cc2c(c(OC)c1OC)-c1ccc(NN(C(=O)c3ccccc3)C(=O)c3ccccc3)c(=O)cc1[C@@H](NC(C)=O)CC2` (tested in a mixture with another compound), the GI50 in the assay on NCI-H522 lung was 2.01 µM; in the assay on HL-60(TB) leukemia, 2.1 µM; in the assay on EKVX NSCLC it was 8.09 µM; in the assay with K-562 leukemia, 4.03 µM; with MOLT-4 leukemia, 4.08 µM; in the assay with SK-MEL-28 melanoma, 8.76 µM. Further, the GI50 with A498 renal was 3.78 µM; in the assay on T-47D breast, 4.71 µM; with SF-268 CNS, 4.61 µM; with OVCAR-4 ovarian, 7.06 µM. For the same compound, the TGI in the assay with NCI-H522 lung was 6.18 µM; with HL-60(TB) leukemia, 14.7 µM; in the assay on EKVX NSCLC it was over 100 µM; in the assay with K-562 leukemia it was over 100 µM; with MOLT-4 leukemia, over 100 µM; with SK-MEL-28 melanoma it was 29 µM. Also, the TGI with A498 renal is 52 µM; in the assay on T-47D breast, 42 µM; in the assay with SF-268 CNS, over 100 µM; with OVCAR-4 ovarian, over 100 µM.

As to `O=C1/C(=C/c2ccc(Cl)c(Cl)c2)CN(C(=O)C(Cl)Cl)C/C1=C\c1ccc(Cl)c(Cl)c1`, the GI50 in the assay with NCI-H522 lung is 0.27 µM; in the assay on HL-60(TB) leukemia, 0.198 µM; in the assay on EKVX NSCLC, 0.223 µM; in the assay on K-562 leukemia, 0.0369 µM; in the assay with MOLT-4 leukemia, 0.0985 µM; with SK-MEL-28 melanoma it was 0.252 µM. Besides, the GI50 with A498 renal is 0.216 µM; with T-47D breast, 0.256 µM; in the assay on SF-268 CNS, 0.243 µM; with OVCAR-4 ovarian, 0.0743 µM. Further, the TGI is 1.2 µM in the assay with NCI-H522 lung; 1.05 µM in the assay with HL-60(TB) leukemia; 0.757 µM in the assay with EKVX NSCLC; over 36.2 µM in the assay with K-562 leukemia; over 100 µM in the assay on MOLT-4 leukemia; 0.634 µM in the assay on SK-MEL-28 melanoma. Further, the TGI in the assay on A498 renal came out at 0.664 µM; in the assay with T-47D breast, 1.77 µM; in the assay with SF-268 CNS it was 1.14 µM; with OVCAR-4 ovarian, 1.49 µM.

On to `CC(C)=CCc1cc2c(cc1O)C1=C(C(=O)C3=C(C1=O)S(=O)(=O)CCN3)C(C=C(C)C)O2` (configuration not stated), for which the GI50 is 0.568 µM in the assay on NCI-H522 lung; 0.438 µM in the assay with HL-60(TB) leukemia; 1.55 µM in the assay on EKVX NSCLC; 2.24 µM in the assay with K-562 leukemia; 0.718 µM in the assay with MOLT-4 leukemia; 0.541 µM in the assay on SK-MEL-28 melanoma. The GI50 in the assay with A498 renal is 3.54 µM; in the assay with T-47D breast, 0.714 µM; in the assay on SF-268 CNS, 0.917 µM; in the assay with OVCAR-4 ovarian it was 0.469 µM. Moreover, the concentration for total growth inhibition (TGI) with NCI-H522 lung is 1.85 µM; with HL-60(TB) leukemia it was 1.11 µM; with EKVX NSCLC, 6.93 µM; with K-562 leukemia, 14.6 µM; in the assay with MOLT-4 leukemia, 3.99 µM; in the assay with SK-MEL-28 melanoma, 1.92 µM. The TGI was determined as 5.96 µM in the assay with A498 renal, 7.15 µM in the assay with T-47D breast, 4.74 µM with SF-268 CNS and 2.44 µM in the assay on OVCAR-4 ovarian.

As to `Oc1ccc(Cl)cc1C(c1cc(Cl)ccc1O)C(Cl)(Cl)Cl`, the GI50 with NCI-H522 lung was 1.87 µM; with HL-60(TB) leukemia, 2.45 µM; in the assay on EKVX NSCLC it was 1.84 µM; in the assay on K-562 leukemia, 2.28 µM; in the assay with MOLT-4 leukemia it was 1.54 µM; in the assay with SK-MEL-28 melanoma, 1.8 µM. In addition, the GI50 was 1.67 µM with A498 renal, 3.32 µM in the assay on T-47D breast, 1.77 µM in the assay on SF-268 CNS and 2.71 µM in the assay with OVCAR-4 ovarian. Further, the TGI came out at 5.44 µM in the assay with NCI-H522 lung; 5.13 µM in the assay with HL-60(TB) leukemia; 5.8 µM in the assay on EKVX NSCLC; 5.59 µM with K-562 leukemia; 5.06 µM in the assay on MOLT-4 leukemia; 4.02 µM with SK-MEL-28 melanoma. Moreover, the TGI came to 3.53 µM in the assay on A498 renal, 12.4 µM in the assay with T-47D breast, 3.41 µM with SF-268 CNS and 10.7 µM with OVCAR-4 ovarian.

On to `Clc1nccc2c(-c3csc(-c4c[nH]c5ccc(Br)cc45)n3)c[nH]c12`, for which the GI50 is 2.28 µM with NCI-H522 lung; 2.64 µM in the assay on HL-60(TB) leukemia; 3.11 µM with EKVX NSCLC; 2.73 µM in the assay on K-562 leukemia; 3.02 µM in the assay with MOLT-4 leukemia; 1.85 µM in the assay with SK-MEL-28 melanoma. The GI50 was 1.56 µM in the assay on A498 renal, 3.12 µM in the assay on T-47D breast, 4.06 µM with SF-268 CNS and 3.25 µM in the assay with OVCAR-4 ovarian. Further, the TGI stood at 6.86 µM with NCI-H522 lung; 14.1 µM in the assay with HL-60(TB) leukemia; 12.4 µM with EKVX NSCLC; 9.44 µM in the assay with K-562 leukemia; 13.9 µM in the assay on MOLT-4 leukemia; 4.16 µM in the assay with SK-MEL-28 melanoma. The TGI came to 4.84 µM in the assay with A498 renal, 18 µM in the assay on T-47D breast, 18 µM with SF-268 CNS and 15.9 µM in the assay on OVCAR-4 ovarian.

For `CO[C@H]1C[C@@H]2CC[C@@H](C)[C@@](O)(O2)C(=O)C(=O)N2CCCC[C@H]2C(=O)O[C@H]([C@H](C)C[C@@H]2CC[C@@H](OC(=O)C(C)(CO)CO)[C@H](OC)C2)CC(=O)[C@H](C)/C=C(\C)[C@@H](O)[C@@H](OC)C(=O)[C@H](C)C[C@H](C)\C=C/C=C/C=C/1C`, the GI50 in the assay on NCI-H522 lung is 0.444 µM; in the assay on HL-60(TB) leukemia, over 10 µM; in the assay on EKVX NSCLC, 0.00167 µM; with K-562 leukemia, 5.96 µM; in the assay on MOLT-4 leukemia, 0.22 µM; with SK-MEL-28 melanoma, 0.0219 µM. For the same compound, the GI50 with A498 renal was 0.00187 µM; in the assay with OVCAR-4 ovarian, under 0.001 µM. The TGI in the assay with NCI-H522 lung, in the assay with HL-60(TB) leukemia, in the assay on EKVX NSCLC, with K-562 leukemia, in the assay with MOLT-4 leukemia and with SK-MEL-28 melanoma was over 10 µM in each case. In addition, the TGI in the assay with T-47D breast, in the assay on SF-268 CNS and with OVCAR-4 ovarian was over 10 µM in each case.

For the compound `CSc1ccc(C2=C(c3ccccc3)C(=O)OC2)cc1`, the GI50 in the assay with NCI-H522 lung was 0.619 µM; in the assay on HL-60(TB) leukemia, 0.35 µM; in the assay on EKVX NSCLC, 5.76 µM; with K-562 leukemia it was 0.101 µM; in the assay on MOLT-4 leukemia, 0.174 µM; in the assay on SK-MEL-28 melanoma, 6.69 µM. In addition, the GI50 in the assay on A498 renal was 3.13 µM; with T-47D breast it was 1.22 µM; in the assay with SF-268 CNS, 3.02 µM; in the assay with OVCAR-4 ovarian it was 21.2 µM. For the same compound, the concentration for total growth inhibition (TGI) in the assay on NCI-H522 lung is 2.45 µM; in the assay on HL-60(TB) leukemia, 2.07 µM; in the assay with EKVX NSCLC, over 100 µM; in the assay with K-562 leukemia, over 100 µM; with MOLT-4 leukemia it was over 100 µM; in the assay with SK-MEL-28 melanoma, over 100 µM. Further, the TGI in the assay on A498 renal was 13.9 µM; in the assay on T-47D breast, over 100 µM; with SF-268 CNS it was over 64.7 µM; with OVCAR-4 ovarian it was over 100 µM.

For the compound `COc1cc2cc(Oc3ccc(NC(=O)Nc4cc(C(F)(F)F)cc(C(F)(F)F)c4)cc3)c(C)nc2cc1OCCN1CCOCC1`, the GI50 in the assay on NCI-H522 lung was 1.63 µM; in the assay on HL-60(TB) leukemia, 1.62 µM; in the assay with EKVX NSCLC it was 1.64 µM; in the assay with K-562 leukemia, 1.41 µM; with MOLT-4 leukemia, 1.32 µM; in the assay with SK-MEL-28 melanoma, 1.8 µM. Besides, the GI50 was 1.8 µM in the assay with A498 renal, 2.04 µM in the assay on T-47D breast, 1.98 µM in the assay on SF-268 CNS and 1.88 µM in the assay on OVCAR-4 ovarian. Also, the TGI with NCI-H522 lung is 7.29 µM; in the assay on HL-60(TB) leukemia it was 4.93 µM; in the assay on EKVX NSCLC it was 6.68 µM; in the assay on K-562 leukemia, 5.5 µM; with MOLT-4 leukemia, 4.29 µM; in the assay with SK-MEL-28 melanoma it was 6.94 µM. The TGI in the assay with A498 renal is 6.69 µM; in the assay with T-47D breast, 10.2 µM; in the assay with SF-268 CNS it was 8.06 µM; with OVCAR-4 ovarian, 6.95 µM.

Consider `CCOCC1(COCC)CCC(c2[nH]ncc2CN(C)CCNC)CC1`, for which the GI50 was over 100 µM in the assay with NCI-H522 lung; over 100 µM with HL-60(TB) leukemia; over 100 µM with EKVX NSCLC; 28.8 µM in the assay with K-562 leukemia; over 100 µM in the assay on MOLT-4 leukemia; over 100 µM in the assay with SK-MEL-28 melanoma. Besides, the GI50 was 8.25 µM in the assay with A498 renal, over 100 µM with T-47D breast, over 100 µM in the assay on SF-268 CNS and over 100 µM with OVCAR-4 ovarian. In addition, the TGI with NCI-H522 lung, in the assay on HL-60(TB) leukemia, in the assay on EKVX NSCLC, in the assay with K-562 leukemia, with MOLT-4 leukemia and with SK-MEL-28 melanoma was over 100 µM each time. The TGI with A498 renal, in the assay with T-47D breast, with SF-268 CNS and in the assay on OVCAR-4 ovarian was over 100 µM in each case.

The record behind these values is PubChem BioAssay (NCI).
